Experimental data from US9802941B2, “Compounds and methods for inhibiting histone demethylases” (Gilead Sciences, Inc., priority 2014, dated 2017).
Read-outs that look alike come from different tables or passages of the source.

How the values were obtained:
Type in all cases: biochemical
KDM4C (JMJD2C) = target: T1, KDM4C (JMJD2C) (Homo sapiens, UniProt Q9H3R0); assay: Histone lysine demethylase AlphaLISA assay, KDM4C
T1 construct: KDM4C; BRIC, Denmark; 1-349; E. coli; host or cells: E. coli
T1 sequence (Q9H3R0 1-349): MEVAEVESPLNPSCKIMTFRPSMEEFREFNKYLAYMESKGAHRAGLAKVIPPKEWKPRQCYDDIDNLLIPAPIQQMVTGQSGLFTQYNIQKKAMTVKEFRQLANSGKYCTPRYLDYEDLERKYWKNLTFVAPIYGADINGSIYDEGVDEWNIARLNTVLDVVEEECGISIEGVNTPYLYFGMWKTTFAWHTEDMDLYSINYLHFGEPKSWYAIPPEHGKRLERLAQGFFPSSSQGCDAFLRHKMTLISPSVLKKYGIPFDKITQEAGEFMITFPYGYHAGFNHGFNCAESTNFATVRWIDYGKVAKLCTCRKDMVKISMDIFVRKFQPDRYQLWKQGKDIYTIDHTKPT
Summary of the method: (§1)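 Enzyme was preincubated in buffer (50 mM Hepes pH 7.4-8.0, 0.003-0.01% Tween-20, 0.1% BSA, 5 μM (NH4)2Fe(SO4)2), then added to compound in DMSO and incubated 10 minutes before substrate. After reaction at room temperature, acceptor and streptavidin donor beads were added and AlphaLISA signal read.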

KDM2B (FBXL10) = target: T2, KDM2B (FBXL10) (Homo sapiens, UniProt Q8NHM5); assay: Histone lysine demethylase AlphaLISA assay, KDM2B
T2 construct: KDM2B; BPS,; 1-650; Bac; purchased BPS Bioscience, US; host or cells: baculovirus system
T2 sequence (Q8NHM5 1-650): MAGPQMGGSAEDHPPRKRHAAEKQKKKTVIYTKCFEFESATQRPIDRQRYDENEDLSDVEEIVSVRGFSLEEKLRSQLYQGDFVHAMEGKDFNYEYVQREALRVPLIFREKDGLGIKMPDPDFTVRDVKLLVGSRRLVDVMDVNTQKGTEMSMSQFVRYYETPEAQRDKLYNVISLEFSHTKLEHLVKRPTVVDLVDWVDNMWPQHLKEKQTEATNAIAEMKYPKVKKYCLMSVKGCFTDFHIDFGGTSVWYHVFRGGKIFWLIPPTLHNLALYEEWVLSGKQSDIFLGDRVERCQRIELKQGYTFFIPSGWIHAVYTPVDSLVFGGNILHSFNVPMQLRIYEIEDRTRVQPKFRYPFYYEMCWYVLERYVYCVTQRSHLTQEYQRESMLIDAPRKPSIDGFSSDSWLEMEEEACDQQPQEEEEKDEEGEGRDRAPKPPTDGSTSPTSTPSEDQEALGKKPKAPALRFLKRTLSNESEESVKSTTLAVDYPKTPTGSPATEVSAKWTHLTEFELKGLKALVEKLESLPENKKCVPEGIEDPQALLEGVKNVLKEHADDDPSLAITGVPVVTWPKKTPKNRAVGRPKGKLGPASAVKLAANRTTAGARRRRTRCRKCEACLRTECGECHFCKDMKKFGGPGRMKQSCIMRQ
Summary of the method: as §1

PHF8 (KDM7) = target: T3, PHF8 (KDM7) (Homo sapiens, UniProt Q9UPP1); assay: Histone lysine demethylase AlphaLISA assay, PHF8
T3 construct: KDM7 (PHF8); BRIC; 1-1322; Bac
T3 sequence (Q9UPP1 37-440 limits assumed): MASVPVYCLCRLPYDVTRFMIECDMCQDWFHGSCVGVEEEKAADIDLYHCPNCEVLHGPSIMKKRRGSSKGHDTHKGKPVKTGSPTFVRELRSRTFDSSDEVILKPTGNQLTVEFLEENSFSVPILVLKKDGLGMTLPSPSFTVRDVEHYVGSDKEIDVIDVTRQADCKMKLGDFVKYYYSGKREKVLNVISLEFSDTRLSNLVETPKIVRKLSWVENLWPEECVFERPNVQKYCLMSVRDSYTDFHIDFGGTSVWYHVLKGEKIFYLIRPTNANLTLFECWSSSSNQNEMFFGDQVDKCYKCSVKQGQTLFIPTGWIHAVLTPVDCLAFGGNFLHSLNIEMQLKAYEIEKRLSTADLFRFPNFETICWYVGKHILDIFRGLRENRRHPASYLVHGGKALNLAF
Summary of the method: as §1

KDM6A (UTX) = target: T4, KDM6A (UTX) (Homo sapiens, UniProt O15550); assay: Histone lysine demethylase AlphaLISA assay, KDM6A
T4 construct: KDM6A (UTX); BRIC; 919-1401; E. coli; host or cells: E. coli
T4 sequence (O15550 919-1401): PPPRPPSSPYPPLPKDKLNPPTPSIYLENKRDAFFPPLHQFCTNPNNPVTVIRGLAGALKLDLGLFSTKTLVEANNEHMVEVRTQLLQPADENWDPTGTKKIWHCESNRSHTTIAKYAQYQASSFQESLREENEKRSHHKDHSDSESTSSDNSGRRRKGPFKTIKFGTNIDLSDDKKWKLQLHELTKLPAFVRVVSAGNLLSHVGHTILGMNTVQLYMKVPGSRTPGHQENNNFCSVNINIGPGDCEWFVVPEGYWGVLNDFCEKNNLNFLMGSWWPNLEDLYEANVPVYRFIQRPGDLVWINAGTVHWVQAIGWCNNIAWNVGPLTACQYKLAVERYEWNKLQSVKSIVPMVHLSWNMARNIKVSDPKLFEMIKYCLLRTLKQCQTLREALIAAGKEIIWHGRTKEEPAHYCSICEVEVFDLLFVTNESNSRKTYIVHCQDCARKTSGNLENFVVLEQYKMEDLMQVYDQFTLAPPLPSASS
Method: The compounds of the application, or a pharmaceutically acceptable salt, or solvate, or prodrug thereof, are tested in an in vitro AlphaLISA assay. Enzymes are dissolved in enzyme buffer and incubated before they are added to DMSO solutions of compounds of the application, or a pharmaceutically acceptable salt, or solvate, or prodrug thereof, in enzyme buffer. The reaction mixture is then incubated for an additional period of time before substrate solution is added and then the resulting mixture again incubated. Acceptor beads and suspended Epigenetic Buffer from stock are added and the suspension is again incubated before a suspension of streptavidin donor beads in Epigenetic Buffer is added. After an additional period of incubation, the plates are read.
The ability of compounds of the application to inhibit the histone lysine demethylase activity in vitro of different enzymes was determined.
The reaction mixture was incubated for another 10 minutes before 5 μL of substrate solution was added and the resulting mixture was then incubated at room temperature. […] After incubation at room temperature in the dark, the plates were read.
Enzyme Buffer: 50 mM Hepes (pH 7.4-8.0), 0.003-0.01% Tween-20, 0.1% BSA; 5 μM (NH4)2Fe(SO4)2.

KDM5B (PLU-1) = target: T5, KDM5B (PLU-1) (Homo sapiens, UniProt Q9UGL1); assay: Histone lysine demethylase AlphaLISA assay, KDM5B
T5 construct: BRIC; 1-809; E. coli; host or cells: E. coli
T5 sequence (Q9UGL1 1-809): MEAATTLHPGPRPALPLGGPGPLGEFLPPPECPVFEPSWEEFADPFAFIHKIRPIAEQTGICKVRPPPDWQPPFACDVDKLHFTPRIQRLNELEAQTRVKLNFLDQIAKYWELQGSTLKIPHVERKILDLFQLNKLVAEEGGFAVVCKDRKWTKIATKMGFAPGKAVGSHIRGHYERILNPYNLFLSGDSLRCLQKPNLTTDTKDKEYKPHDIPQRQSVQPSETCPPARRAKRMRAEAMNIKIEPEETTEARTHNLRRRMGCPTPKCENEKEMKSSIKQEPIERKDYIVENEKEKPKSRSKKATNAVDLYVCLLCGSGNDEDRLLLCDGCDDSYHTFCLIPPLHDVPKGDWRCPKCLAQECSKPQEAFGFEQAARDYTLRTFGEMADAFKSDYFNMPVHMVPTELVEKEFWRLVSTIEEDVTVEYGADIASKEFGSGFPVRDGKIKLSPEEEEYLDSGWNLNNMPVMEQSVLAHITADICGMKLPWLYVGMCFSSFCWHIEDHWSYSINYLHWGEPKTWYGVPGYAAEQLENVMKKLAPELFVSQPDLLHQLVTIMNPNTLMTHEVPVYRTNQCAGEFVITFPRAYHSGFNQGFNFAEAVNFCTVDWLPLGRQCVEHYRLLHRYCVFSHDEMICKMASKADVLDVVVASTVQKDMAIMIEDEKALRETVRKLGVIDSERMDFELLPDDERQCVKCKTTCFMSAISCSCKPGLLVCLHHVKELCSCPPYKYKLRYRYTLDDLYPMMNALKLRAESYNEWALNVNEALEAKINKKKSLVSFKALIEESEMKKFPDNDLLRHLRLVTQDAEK
Summary of the method: as §1

[1] = AlphaLISA assay, read-out: HDME Inhibition KDM4C (IC50)
[2] = AlphaLISA, in vitro, read-out: HDME Inhibition KDM4C
[3] = AlphaLISA, in vitro, read-out: HDME Inhibition KDM2B
[4] = AlphaLISA, in vitro, read-out: HDME Inhibition PHF8
[5] = AlphaLISA assay, read-out: HDME Inhibition KDM6A (IC50)
[6] = AlphaLISA, in vitro, read-out: HDME Inhibition KDM6A
[7] = AlphaLISA, in vitro, read-out: HDME Inhibition KDM5B
[8] = AlphaLISA assay, read-out: HDME Inhibition PHF8 (IC50)
[9] = AlphaLISA assay, read-out: HDME Inhibition KDM5B (IC50)
[10] = AlphaLISA assay, read-out: HDME Inhibition KDM2B (IC50)

Row | Compound | IC50 (KDM4C (JMJD2C); [1]) [µM] | IC50 (KDM4C (JMJD2C); [2]) [µM] | IC50 (KDM2B (FBXL10); [3]) [µM] | IC50 (PHF8 (KDM7); [4]) [µM] | IC50 (KDM6A (UTX); [5]) [µM] | IC50 (KDM6A (UTX); [6]) [µM] | IC50 (KDM5B (PLU-1); [7]) [µM] | IC50 (PHF8 (KDM7); [8]) [µM] | IC50 (KDM5B (PLU-1); [9]) [µM] | IC50 (KDM5B (PLU-1)) [µM] | IC50 (KDM2B (FBXL10); [10]) [µM]
1 | Cc1cc(C(=O)O)cc(CNCCc2ccccn2)n1 [Compound 3, 2-methyl-6-({[2-(pyridin-2-yl)ethyl]amino}methyl)pyridine-4-carboxylic acid] | > 10 | > 10 | 4.65 | > 10 | > 10 | > 10 | > 10 | > 10 | > 10 |  | 
2 | CCCCc1cccnc1CCNCc1cc(C(=O)O)cc(C)n1 [Compound 15, 2-({[2-(3-butylpyridin-2-yl)ethyl]amino}methyl)-6-methylpyridine-4-carboxylic acid] | > 10 | > 10 | 5.68 | > 6 | > 10 | > 10 | > 10 | > 6 | > 10 |  | 
3 | Cc1cc(C(=O)O)cc(CN[C@H]2CCc3cccnc32)n1 [Compound 7, 2-({[(7S)-5H,6H,7H-cyclopenta[b]pyridin-7-yl]amino}methyl)-6-methylpyridine-4-carboxylic acid] | > 10 | > 10 | 7.1 | > 10 | > 10 | > 10 | 1.23 | > 10 |  |  | 
4 | C=Cc1cc(C(=O)O)cc(CNCc2nccn2Cc2ccc(F)cc2)n1 [Compound 12, 2-ethenyl-6-{[({1-[(4-fluorophenyl)methyl]-1H-imidazol-2-yl}methyl)amino]methyl}pyridine-4-carboxylic acid] | > 10 | > 10 | 1.6 | > 10 | > 10 | > 10 |  | > 10 |  | 3.76 | 
5 | Cc1cc(C(=O)O)cc(CNCc2ncc(C3CCC3)n2Cc2ccc(F)cc2)n1 [Compound 39, 2-{[({5-cyclobutyl-1-[(4-fluorophenyl)methyl]-1H-imidazol-2-yl}methyl)amino]methyl}-6-methyl pyridine-4-carboxylic acid] | > 10 | > 10 | 0.155 | 0.472 | > 10 | > 10 | > 10 |  | > 10 |  | 
6 | COc1ccc(CCn2ccnc2CNCc2cc(C(=O)O)cc(C)n2)cc1OC [Compound 22, 2-{[({1-[2-(3,4-dimethoxyphenyl)ethyl]-1H-imidazol-2-yl}methyl)amino]methyl}-6-methylpyridine-4-carboxylic acid] | > 10 | > 10 | > 10 | > 10 | > 10 | > 10 | > 10 | > 10 | > 10 |  | > 10
7 | CCCC(C)c1cnc(CNCc2cc(C(=O)O)cc(C)n2)n1Cc1ccc(F)cc1 (stereo not drawn) [Compound 10, 2-{[({1-[(4-fluorophenyl)methyl]-5-(pentan-2-yl)-1H-imidazole-2-yl}methyl)amino]methyl}-6-methylpyridine-4-carboxylic acid] |  | 1.37 | > 10 | > 10 | > 10 | > 10 |  | > 10 |  | 1.28 | > 10
8 | Cc1cc(C(=O)O)cc(CNCc2nccn2Cc2ccc(F)cc2)n1 [Compound 1, 2-{[({1-[(4-fluorophenyl)methyl]-1H-imidazol-2-yl}methyl)amino]methyl}-6-methylpyridine-4-carboxylic acid] | > 10 | > 10 | 0.431 | 0.352 | > 10 | > 10 | > 10 |  | > 10 |  | 

Next, values leading:

Row | IC50 (KDM4C (JMJD2C); [1]) [µM] | IC50 (KDM4C (JMJD2C); [2]) [µM] | IC50 (KDM2B (FBXL10); [3]) [µM] | IC50 (PHF8 (KDM7); [4]) [µM] | IC50 (KDM6A (UTX); [5]) [µM] | IC50 (KDM6A (UTX); [6]) [µM] | IC50 (KDM5B (PLU-1); [7]) [µM] | IC50 (PHF8 (KDM7); [8]) [µM] | IC50 (KDM5B (PLU-1); [9]) [µM] | IC50 (KDM5B (PLU-1)) [µM] | IC50 (KDM2B (FBXL10); [10]) [µM] | Compound
9 | > 10 | > 10 | 1.54 | 6.93 | > 10 | > 10 | 5.48 |  |  |  |  | Cc1cc(C(=O)O)cc(CNCCc2ncccc2Br)n1 [Compound 11, 2-({[2-(3-bromopyridin-2-yl)ethyl]amino}methyl)-6-methylpyridine-4-carboxylic acid]
10 | > 10 | > 10 | 0.03 | 0.234 | > 10 | > 10 | > 10 |  | > 10 |  |  | CCc1cnc(CNCc2cc(C(=O)O)cc(C)n2)n1Cc1ccc(F)cc1 [Compound 4, 2-{[({5-ethyl-1-[(4-fluorophenyl)methyl]-1H-imidazol-2-yl}methyl)amino]methyl}-6-methylpyridine-4-carboxylic acid]
11 | > 10 | > 10 | 1.14 | 2.65 | > 10 | > 10 | > 10 |  | > 10 |  |  | Cc1cc(C(=O)O)cc(CNCc2nnc(Cc3ccccc3)n2Cc2ccc(F)cc2)n1 [Compound 29, 2-{[({5-benzyl-4-[(4-fluorophenyl)methyl]-4H-1,2,4-triazol-3-yl}methyl)amino]methyl}-6-methylpyridine-4-carboxylic acid]
12 | > 10 | > 10 | 3.93 | 3.03 | > 10 | > 10 | > 10 |  | > 10 |  |  | Cc1cc(C(=O)O)cc(CNCc2nccn2CCC(C)C)n1 [Compound 18, 2-methyl-6-[({[1-(3-methylbutyl)-1H-imidazol-2-yl]methyl}amino)methyl]pyridine-4-carboxylic acid]
